Converted amounts (≈) assume the structure as drawn.
Tests used:
[1] = system: Enterococcus faecalis ATCC29212; assay: MIC determination in broth microdilution assay; conditions: D: Enterococcus faecalis ATCC29212
[2] = Determination of metabolic stability (liver microsomes); type: in vitro ADME; conditions: rat liver microsomes, 20 μM, 15 min
Method: Determination of Metabolic Stability
Incubations were performed with Wistar rat liver microsomes (0.25 mg/ml) in 2% sodium bicarbonate solution. NADP (0.13 mg/ml), glucose-6-phosphate (0.63 mg/ml) and glucose-6-phosphate dehydrogenase (0.38 units/ml) were used as NADPH generation system and UDPGA (0.48 mg/ml) was added to include the phase II reaction, glucuronic acid conjugation, in the assay. After 5 minutes of pre-incubation the reaction was started by addition of the test article to give a final concentration of 20 μM. Samples were incubated for 15 min at 37° C. and the reactions were terminated by addition of equal volumes of acetonitrile. Blank incubations were performed at the same concentration but without addition of microsomes. Both blank and microsome-containing samples were made in replicats of three. Prior to analysis samples were centrifuged for 10 min. at 3500 rpm,HPLC system:
Initial conditions were 40% mobile phase A (acetonitrile) and 60% mobile phase B (10 mM ammonium acetate pH 9.5). During the first 20 minutes, the mobile phase was changed via a linear gradient to 90% A and 10% B. This was followed by a 5 minutes linear gradient to initial conditions, which were maintained for 5 min. The flow rate was 0.20 m)/min and injection volume 10 μl.

[3] = system: Staphylococcus aureus ATCC33591(resistant to methicillin); assay: MIC determination in broth microdilution assay; conditions: B: Staphylococcus aureus ATCC33591(resistant to methicillin)
[4] = system: Eschericia coli ESS; assay: MIC determination in broth microdilution assay; conditions: for MIC: H: Eschericia coli ESS
[5] = system: Staphylococcus aureus ATCC29213; assay: MIC determination in broth microdilution assay; conditions: A: Staphylococcus aureus ATCC29213
[6] = system: Bacteroides fragilis, Clostridium perfringens, Clostridium difficele; type: cell-based; conditions: single concentration of compound (100 μM)
[7] = system: Enterococcus faecium #17501 (vancomycin-resistant clinical isolate); assay: MIC determination in broth microdilution assay; conditions: E: Enterococcus faecium #17501 (vancomycin-resistant)
[8] = system: Eschericia coli ATCC25922; assay: MIC determination in broth microdilution assay; conditions: for MIC: G: Eschericia coli ATCC25922
[9] = Determination of solubility; type: physicochemical; conditions: aqueous buffer at pH 7.4
Method: Determination of Solubility
Solubility of the compounds was determined by preparing a saturated solution of compound in 0.3 M phosphate buffer (pH 7.4±0.3) in a brown glass tube. The suspensions were rotated slowly for 24 hours. Aliquots were centrifuged for 10 minutes at 14.000 rpm and supernatants were diluted in 40% (v/v) acetonitrile in water prior to HPLC analysis. Concentrations of analytes were quantified against a standard curve and used as term of solubility. The HPLC-UV method used for the assessment of solubility is the same as used in the in vitro metabolism assay.

[10] = system: L. major promastigotes; assay: Leishmania promastigote assay
[11] = system: panel of 10 different non-fastidious bacteria; assay: Screening against panel of non-fastidious bacteria
[12] = system: dihydroorotate dehydrogenase (DHODH); assay: DHODH assay; type: biochemical; conditions: at 10 μM
Method: 100 μl chalcone or 0.1 M Tris-HCl pH 8.0 is added to a well in a 96-wells microtiter plate. Then 50 μl enzyme dilution is added. The microtiter plate is placed in the Powerwavex340 and the enzymatic reactions starts when adding 100 μl assay mixture. The reaction are measured every 20 sec. for 10 min. The samples with chalcones are compared with the samples with 0.1 M Tris-HCl pH 8.0 and the percent inhibition is calculated.
Enzyme dilution: The solution of recombinant purified enzyme is dissolved in 0.1 M Tris-HCl pH 8 to give an initial velocity of 0.04-0.05 ΔA/min.
2,6-dichlorophenolindophenol (DCIP)-stock solution: 40 mg DCIP and 10 ml 99% Ethanol are mixed for 10 min at RT. Then 100 μl 1.0 M Tris-HCl pH 8 and miliQ H2O are added to a final volume of 100 ml. The A600 of the DCIP-stock solution are measured in a microtiter plate on the Powerwavex340 (Bio-Tek instruments,Inc.)
[…]: 25 mM dihydroorotate stock-solution is prepared by first dissolving in the same amount of mol NaOH and then miliQ H2O is added to the final volume.
Assay mix (10 ml solution): 600 μl of DHODH-stock solution and X ml (depending on the A600 value of stock-solution) DCIP to a final A600=2.5 are mixed. Then 0.1 M Tris-HCl pH 8.0 are added to a final volume of 10 ml.
Preparation of compound soluton: A 10 mM stock-solution of compound (e.g. a chalcone derivative) is made in dimethylsulfoxid (DMSO). The compound is then diluted in 0.1 M Tris-HCl pH 8 to the test concentrations. The final DMSO concentration in the sample is 10%

[13] = system: Plasmodium falciparum 3D7; assay: Plasmodium falciparum assay; type: cell-based; conditions: Plasmodium falciparum 3D7 (Table 2); read-out: IC50

Cc1cc(C)cc(-c2ccc(OCCN(C)C)c(/C=C/C(=O)c3ccccc3NCCN(C)C)c2)c1 [Compound C074, (E)-3-[4-(2-Dimethylamino-ethoxy)-3′,5′-dimethyl-biphenyl-3-yl]-1-[2-(2-dimethylamino-ethylamino)-phenyl]-propenone]
MIC [1]: 9.4 µM (≈ 4.57 µg/mL)
Metabolic turn-over in vitro [2]: 7%
MIC [3]: 9.4 µM (≈ 4.57 µg/mL)
activity against ESS strain of E.coli [4]: high activity
MIC [4]: 4.7 µM (≈ 2.28 µg/mL)
MIC [5]: 9.4 µM (≈ 4.57 µg/mL)
activity against anaerobic bacteria [6]: activity against all microorganisms within the test panel
MIC [7]: 9.4 µM (≈ 4.57 µg/mL)
activity against E coli ATCC25922 [8]: high activity
MIC [8]: 9.4 µM (≈ 4.57 µg/mL)

Cc1ccccc1-c1ccc(OCCN(C)C)c(/C=C/C(=O)c2ccc(O)c(CN(C)C)c2)c1 [Compound C108, (E)-3-[4-(2-Dimethylamino-ethoxy)-2′-methyl-biphenyl-3-yl]-1-(3-dimethylaminomethyl-4-hydroxy-phenyl)-propenone]
Solubility [9]: 18100 µg/mL (≈ 39.5 mM)

Cc1ccccc1-c1ccc(OCCN(C)C)c(CCC(=O)c2ccccc2CN(C)C)c1 [Compound C073, 3-[4-(2-Dimethylamino-ethoxy)-2′-methyl-biphenyl-3-yl]-1-(2-dimethylaminomethyl-phenyl)-propan-1-one]
solubility at 24 h ([9]; 0.3 M phosphate buffer, thermodynamic from solid): > 10000 µg/mL

COc1ccc(C(=O)/C=C/c2cc(-c3ccccc3OC)ccc2OCCN(C)C)c(F)c1 [Compound C015, (E)-3-[4-(2-Dimethylamino-ethoxy)-2′-methoxy-biphenyl-3-yl]-1-(2-fluoro-4-methoxy-phenyl)-propenone]
IC50 ([10]; L. major): 100 nM
potency against Gram-positive pathogens in comparison with Licochalcone A [11]: increased potency
activity against anaerobic bacteria [6]: activity against all microorganisms within the test panel

CN(C)CCOc1ccc(C(C)(C)C)cc1/C=C/C(=O)c1ccccc1NS(=O)(=O)c1ccccc1 [Compound C027, N-(2-{3-[5-tert-Butyl-2-(2-dimethylamino-ethoxy)-phenyl]-(E)-acryloyl}-phenyl)-benzenesulfonamide]
Inhibition of DHODH [12]: 22%

CN(C)CCOc1ccc(-c2ccccc2)cc1/C=C/C(=O)c1cccc(CN(C)C)c1 [Compound C037, (E)-3-[4-(2-Dimethylamino-ethoxy)-biphenyl-3-yl]-1-(3-dimethylaminomethyl-phenyl)-propenone]
IC50 ([10]; L. major): 500 nM
Solubility [9]: 1500 µg/mL (≈ 3.5 mM)
potency against Gram-positive pathogens in comparison with Licochalcone A [11]: increased potency

COc1ccc(C(=O)/C=C/c2cc(-c3ccccc3C)ccc2OCCN(C)C)c(F)c1 [Compound C020, (E)-3-[4-(2-Dimethylamino-ethoxy)-2′-methyl-biphenyl-3-yl]-1-(2-fluoro-4-methoxy-phenyl)-propenone]
Inhibition of DHODH [12]: 18%
IC50 ([10]; L. major): 30 nM

COc1ccc(C(=O)C=Cc2cc(-c3ccccc3Cl)ccc2OCCN(C)C)c(OC)c1OC [Compound C018, (E)-3-[2′-Chloro-4-(2-dimethylamino-ethoxy)-biphenyl-3-yl]-1-(2,3,4-trimethoxy-phenyl)-propenone]
Solubility [9]: 1500 µg/mL (≈ 3.02 mM)

Cc1cc(C)cc(-c2ccc(OCCN(C)C)c(C=CC(=O)c3cccc(F)c3)c2)c1 [Compound C079, (E)-3-[4-(2-Dimethylamino-ethoxy)-3′,5′-dimethyl-biphenyl-3-y]-1-(3-fluoro-phenyl)-propenone]
activity against anaerobic bacteria [6]: activity against all microorganisms within the test panel

COc1ccc(C(=O)/C=C/c2ccccc2)cc1 [4′MC, 4′-methoxy chalcone, reference compound]
Inhibition of DHODH [12]: 7%
antibacterial effect [11]: no antibacterial effect at all

COc1ccc(C(=O)/C=C/c2cc(-c3ccccc3C)ccc2OCCN(C)C)c(Cl)c1 [Compound C022, (E)-1-(2-Chloro-4-methoxy-phenyl)-3-[4-(2-dimethylamino-ethoxy)-2′-methyl-biphenyl-3-yl]-propenone]
Inhibition of DHODH [12]: 21%

Cc1ccccc1-c1ccc(OCCN2CCCC2)c(/C=C/C(=O)c2ccccc2CN(C)C)c1 [Compound C136, (E)-1-(2-Dimethylaminomethyl-phenyl)-3-[2′-methyl-4-(2-pyrrolidin-1-yl-ethoxy)-biphenyl-3-yl]-propenone]
Solubility [9]: 5500 µg/mL (≈ 11.7 mM)

COc1ccc(C(=O)/C=C/c2cc(-c3ccccc3C)ccc2OCCN(C)C)cc1 [Compound C019, (E)-3-[4-(2-Dimethylamino-ethoxy)-2′-methyl-biphenyl-3-yl]-1-(4-methoxy-phenyl)-propenone]
Inhibition of DHODH [12]: 18%
times more potent than LicA ([10]; dose-respons curve at Leishmania Major, FIG. 5): 100 times

COc1ccc(C(=O)/C=C/c2cc(-c3cc(C)cc(C)c3)ccc2OCCN(C)C)c(OC)c1OC [Compound C025, (E)-3-[4-(2-Dimethylamino-ethoxy)-3′,5′-dimethyl-biphenyl-3-yl]-1-(2,3,4-trimethoxy-phenyl)-propenone]
activity against anaerobic bacteria [6]: activity against all microorganisms within the test panel

Cc1cc(C)cc(-c2ccc(OCCN(C)C)c(/C=C/C(=O)c3cccc(NCCN(C)C)c3)c2)c1 [Compound C075, (E)-3-[4-(2-Dimethylamino-ethoxy)-3′,5′-dimethyl-biphenyl-3-yl]-1-[3-(2-dimethylamino-ethylamino)-phenyl]-propenone]
MIC [1]: 9.4 µM (≈ 4.57 µg/mL)
Metabolic turn-over in vitro [2]: 8%
Solubility [9]: 4100 µg/mL (≈ 8.44 mM)
MIC [3]: 4.7 µM (≈ 2.28 µg/mL)
activity against ESS strain of E.coli [4]: high activity
MIC [4]: 4.7 µM (≈ 2.28 µg/mL)
IC50 [13]: 500 nM
MIC [5]: 4.7 µM (≈ 2.28 µg/mL)
MIC [7]: 9.4 µM (≈ 4.57 µg/mL)
activity against E coli ATCC25922 [8]: high activity
MIC [8]: 9.4 µM (≈ 4.57 µg/mL)

CN(C)CCCOc1ccc(C(C)(C)C)cc1/C=C/C(=O)c1ccccc1NS(=O)(=O)c1ccccc1 [Compound C042, N-(2-{3-[5-tert-Butyl-2-(3-dimethylamino-propoxy)-phenyl]-(E)-acryloyl}-phenyl)-benzenesulfonamide]
IC50 ([10]; Leishmania major): 200 nM
potency against Gram-positive pathogens in comparison with Licochalcone A [11]: increased potency
activity against anaerobic bacteria [6]: activity against all microorganisms within the test panel

COc1ccccc1-c1ccc(OCCN(C)C)c(/C=C/C(=O)c2ccccc2CN(C)C)c1 [Compound C036, (E)-3-[4-,(2-Dimethylamino-ethoxy)-2′-methoxy-biphenyl-3-yl]-1-(2-dimethylaminomethyl-phenyl)-propenone]
Solubility [9]: 1800 µg/mL (≈ 3.92 mM)
IC50 [13]: 200 nM
